According to the NIST ThermoML archive (doi:10.1016/j.fluid.2008.03.004):

Experiment: xn = mol fraction of the nth substance listed
Settings: 101 kPa, Liquid; for speed of sound: Sing-around technique in a fixed-path interferometer

Cc1ccccc1C [1,2-dimethylbenzene] + COC(C)(C)C
Settings	mass density, 288.15 K [kg/m3]	mass density, 290.65 K [kg/m3]	mass density, 293.15 K [kg/m3]	mass density, 295.65 K [kg/m3]	speed of sound, 288.15 K [m/s]	speed of sound, 290.65 K [m/s]	speed of sound, 293.15 K [m/s]	speed of sound, 295.65 K [m/s]
x2 = 0	883.36	881.265	879.168	877.069	1381.3	1371.8	1362.2	1351.8
x2 = 0.052	876.722	874.606	872.486	870.364	1374.2	1364.9	1354.8	1344.5
x2 = 0.101	870.811	868.675	866.535	864.394	1361.2	1350.7	1340.3	1329.8
x2 = 0.203	857.652	855.478	853.3	851.12	1332.7	1322.1	1311.6	1301.1
x2 = 0.303	844.603	842.386	840.168	837.944	1302.7	1292	1281.4	1270.7
x2 = 0.401	831.766	829.505	827.242	824.973	1274.2	1263.3	1252.5	1241.8
x2 = 0.499	818.201	815.897	813.586	–	1243.3	1232.4	1221.6	1210.7
x2 = 0.604	803.537	801.177	798.814	–	1212.8	1201.5	1190.3	1179.3
x2 = 0.707	788.841	786.421	783.998	–	1179	1167.7	1156.6	1145.4
x2 = 0.8	775.294	772.825	770.35	–	1148.4	1136.8	1125.5	1114.1
x2 = 0.9	760.339	757.801	755.264	–	1119.5	1107.9	1096.5	1085.1
x2 = 0.95	752.593	750.025	747.451	–	1099.1	1087.4	1075.9	1064.4
